Results as given in US12686665B2, “Bicyclic fused ring derivative or salt thereof and pharmaceutical composition comprising same” (YUHAN CORPORATION, priority 2021, dated 2026).
Structures can show the parent of a compound that is named as a salt.

Legend:
[1] = system: mouse bleomycin-mediated lung injury model; conditions: cited from earlier work
[2] = target: T1, recombinant human MAO-A (monoamine oxidase-A) (Homo sapiens, UniProt P21397); test: Amplex Red HRP-coupled amine oxidase assay, recombinant human MAO-A; format: biochemical; conditions: 0.5 mM tyramine substrate, read-out: Inhibitory activity (IC50, nM) MAO-A
T1 construct: purchased Sigma-Aldrich
T1 sequence (P21397 1-527): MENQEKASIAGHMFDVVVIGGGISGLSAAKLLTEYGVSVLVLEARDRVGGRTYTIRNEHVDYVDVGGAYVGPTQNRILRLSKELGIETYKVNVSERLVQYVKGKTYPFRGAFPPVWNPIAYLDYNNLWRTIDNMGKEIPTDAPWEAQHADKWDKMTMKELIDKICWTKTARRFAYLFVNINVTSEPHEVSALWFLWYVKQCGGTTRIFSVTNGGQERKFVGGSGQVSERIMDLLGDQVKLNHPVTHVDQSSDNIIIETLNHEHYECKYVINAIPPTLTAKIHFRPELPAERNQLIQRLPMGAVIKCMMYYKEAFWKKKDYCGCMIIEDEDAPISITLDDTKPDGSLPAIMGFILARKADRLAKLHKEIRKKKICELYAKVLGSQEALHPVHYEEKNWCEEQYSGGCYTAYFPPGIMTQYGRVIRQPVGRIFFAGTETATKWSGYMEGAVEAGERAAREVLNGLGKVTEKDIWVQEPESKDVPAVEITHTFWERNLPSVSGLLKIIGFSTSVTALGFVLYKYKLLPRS
How it was run: (§1)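 Enzyme preincubated 60 min at 37 °C with compound (six-point curve, 1% DMSO final) in 50 mM sodium phosphate pH 7.4, then Amplex Red 400 μM and HRP 2 U/mL added with substrate: MAO-A 0.5 mM tyramine, MAO-B 1 mM benzylamine, DAO 1 mM putrescine. Resorufin fluorescence read after 1 h; IC50 by four-parameter logistic fit.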

[3] = target: T2, recombinant human Lysyl Oxidase-Like 2 (LOXL2) (Homo sapiens, UniProt Q9Y4K0); test: Amplex Red HRP-coupled amine oxidase assay, recombinant human LOXL2; format: biochemical; conditions: 60 min incubation with enzyme at 37° C., putrescine substrate, read-out: Inhibitory activity (IC50, nM) human LOXL2
T2 construct: purchased R&D systems
T2 sequence (Q9Y4K0 26-774): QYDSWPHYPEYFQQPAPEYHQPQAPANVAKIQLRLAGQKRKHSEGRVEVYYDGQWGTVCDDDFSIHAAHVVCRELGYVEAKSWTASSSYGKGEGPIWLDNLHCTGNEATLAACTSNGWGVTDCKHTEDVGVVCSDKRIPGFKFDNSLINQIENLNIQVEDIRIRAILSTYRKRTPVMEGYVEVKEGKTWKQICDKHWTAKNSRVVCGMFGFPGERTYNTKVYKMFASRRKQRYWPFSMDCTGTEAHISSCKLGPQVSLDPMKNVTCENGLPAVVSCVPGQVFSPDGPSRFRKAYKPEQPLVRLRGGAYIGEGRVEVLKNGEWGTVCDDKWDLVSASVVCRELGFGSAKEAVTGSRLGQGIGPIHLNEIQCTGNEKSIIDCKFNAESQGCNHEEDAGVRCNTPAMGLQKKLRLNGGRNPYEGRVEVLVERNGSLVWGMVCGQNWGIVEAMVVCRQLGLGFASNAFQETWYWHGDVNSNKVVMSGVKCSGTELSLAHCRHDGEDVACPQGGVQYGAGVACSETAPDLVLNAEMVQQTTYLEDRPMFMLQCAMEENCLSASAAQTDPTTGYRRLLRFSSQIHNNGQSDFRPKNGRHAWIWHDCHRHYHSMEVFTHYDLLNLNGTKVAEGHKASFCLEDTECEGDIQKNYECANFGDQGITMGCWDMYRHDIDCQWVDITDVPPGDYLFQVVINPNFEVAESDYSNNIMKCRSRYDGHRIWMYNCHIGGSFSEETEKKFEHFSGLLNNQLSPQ
How it was run: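 Putrescine substrate (30 mM) in 50 mM sodium phosphate pH 7.4, 37 °C; compounds preincubated 60 min with enzyme, 1% DMSO final, six-point curves. H2O2 detected via 400 μM Amplex Red/2 U/mL HRP, fluorescence (ex 530/em 590 nm) after 1 h; IC50 from four-parameter logistic fit of % signal reduction.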

[4] = target: T3, recombinant human MAO-B (monoamine oxidase-B) (Homo sapiens, UniProt P27338); test: Amplex Red HRP-coupled amine oxidase assay, recombinant human MAO-B; format: biochemical; conditions: 1 mM benzylamine substrate, read-out: Inhibitory activity (IC50, nM) MAO-B
T3 construct: purchased Sigma-Aldrich
T3 sequence (P27338 1-520): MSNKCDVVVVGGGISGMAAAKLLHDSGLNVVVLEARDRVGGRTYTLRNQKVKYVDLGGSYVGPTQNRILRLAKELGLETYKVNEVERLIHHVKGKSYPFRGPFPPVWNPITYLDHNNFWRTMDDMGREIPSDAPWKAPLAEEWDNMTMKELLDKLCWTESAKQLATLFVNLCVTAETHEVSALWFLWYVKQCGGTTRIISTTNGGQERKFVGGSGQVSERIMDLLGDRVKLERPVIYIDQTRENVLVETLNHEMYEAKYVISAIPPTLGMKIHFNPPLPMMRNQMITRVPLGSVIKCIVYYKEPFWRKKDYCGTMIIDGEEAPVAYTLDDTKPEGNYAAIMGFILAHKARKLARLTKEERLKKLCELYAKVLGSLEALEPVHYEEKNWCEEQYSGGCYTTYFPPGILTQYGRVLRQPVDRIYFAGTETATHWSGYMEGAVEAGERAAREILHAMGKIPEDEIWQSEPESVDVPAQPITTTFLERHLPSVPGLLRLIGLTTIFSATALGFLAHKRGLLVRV
How it was run: as §1

[5] = target: T4, recombinant human DAO (diamine oxidase) (Homo sapiens, UniProt P19801); test: Amplex Red HRP-coupled amine oxidase assay, recombinant human DAO; format: biochemical; conditions: 1 mM putrescine substrate, read-out: Inhibitory activity (IC50, nM) DAO
T4 construct: purchased R&D systems
T4 sequence (P19801 20-751): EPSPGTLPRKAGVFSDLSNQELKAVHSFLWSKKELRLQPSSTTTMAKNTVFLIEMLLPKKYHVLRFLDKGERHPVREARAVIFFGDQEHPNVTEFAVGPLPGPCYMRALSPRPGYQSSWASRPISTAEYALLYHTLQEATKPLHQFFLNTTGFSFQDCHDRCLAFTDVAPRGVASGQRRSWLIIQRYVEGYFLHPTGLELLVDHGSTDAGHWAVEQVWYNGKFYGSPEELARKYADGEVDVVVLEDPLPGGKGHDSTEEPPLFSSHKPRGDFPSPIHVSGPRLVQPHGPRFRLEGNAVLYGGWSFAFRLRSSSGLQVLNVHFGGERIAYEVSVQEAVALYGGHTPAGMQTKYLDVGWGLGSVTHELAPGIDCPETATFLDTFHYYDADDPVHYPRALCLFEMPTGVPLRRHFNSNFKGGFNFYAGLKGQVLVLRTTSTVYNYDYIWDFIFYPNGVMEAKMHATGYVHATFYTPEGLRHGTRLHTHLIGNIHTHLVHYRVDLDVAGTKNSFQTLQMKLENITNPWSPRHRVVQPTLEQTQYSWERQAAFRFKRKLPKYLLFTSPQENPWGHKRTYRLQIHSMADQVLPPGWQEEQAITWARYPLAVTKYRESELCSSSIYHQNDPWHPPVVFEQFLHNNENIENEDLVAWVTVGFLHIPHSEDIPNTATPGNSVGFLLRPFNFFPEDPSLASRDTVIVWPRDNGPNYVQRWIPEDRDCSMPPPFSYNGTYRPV
How it was run: as §1

[6] = system: liver and cardiacfibrosis; conditions: in vivo; cited from earlier work
[7] = system: UUO animal model causing kidney disease; conditions: cited from earlier work

Compound	IC50 [2]	IC50 [3]	IC50 [4]	IC50 [5]	fibrosis [1]	liver and cardiac fibrosis [6]	renal fibrosis [7]
NCc1cc(Oc2cccc(C(=O)N3C[C@@H](O)[C@H](F)C3)c2)nc(C(F)(F)F)c1 [PAT-1251]	–	–	–	–	significantly reduced fibrosis	–	–
COC(=O)c1cc(-c2cccc(S(=O)(=O)N3CCCC3)c2)c2ncn(C/C(F)=C/CN)c2c1 [Example 23, methyl (Z)-1-(4-amino-2-fluorobut-2-en-1-yl)-4-(3-(pyrrolidin-1-ylsulfonyl)phenyl)-1H-benzo[d]imidazol-6-carboxylate hydrochloride]	> 100000 nM	16.7 nM	> 100000 nM	986 nM	–	–	–
CS(=O)(=O)c1cccc(-c2cc(F)cc3c2ncn3C/C(F)=C/CN)c1 [Example 3, (Z)-3-fluoro-4-(6-fluoro-4-(3-(methylsulfonyl)phenyl)-1H-benzo[d]imidazol-1-yl)but-2-en-1-amine hydrochloride]	> 100000 nM	54 nM	71200 nM	2940 nM	–	–	–
Cc1nc2c(-c3cccc(S(=O)(=O)N(C)C)c3)cccc2n1C/C(F)=C/CN [Example 56, (Z)-3-(1-(4-amino-2-fluorobut-2-en-1-yl)-2-methyl-1H-benzo[d]imidazol-4-yl)-N,N-dimeth ylbenzenesulfonamide hydrochloride]	6540 nM	74 nM	> 100000 nM	227 nM	–	–	–
Cc1cc(-c2cc(C#N)cc3c2ncn3C/C(F)=C/CN)n(C)n1 [Example 194, (Z)-1-(4-amino-2-fluorobut-2-en-1-yl)-4-(1,3-dimethyl-1H-pyrazol-5-yl)-1H-benzo[d]imidazol-6-carbonitrile hydrochloride]	36800 nM	105 nM	> 100000 nM	7590 nM	–	–	–
CCN(CC)S(=O)(=O)c1ccc(OC)c(-c2cc(C(=O)OC)cc3c2nnn3C/C(F)=C/CN)c1 [Example 119, methyl (Z)-1-(4-amino-2-fluorobut-2-en-1-yl)-4-(5-(N,N-diethylsulfamoyl)-2-methoxyphenyl)-1H-benzo[d][1,2,3]triazol-6-carboxylate hydrochloride]	> 100000 nM	47.3 nM	> 100000 nM	14500 nM	–	–	–
Cc1nc2c(-c3cccc(S(=O)(=O)N4CCCC4)c3)cccc2n1C/C(F)=C/CN [Example 60, (Z)-3-fluoro-4-(2-methyl-4-(3-(pyrrolidin-1-ylsulfonyl)phenyl)-1H-benzo[d]imidazol-1-yl)but-2-en-1-amine hydrochloride]	64200 nM	92 nM	> 100000 nM	636 nM	–	–	–
N#CCCN [β-Aminopropionitrile]	–	–	–	–	–	improve liver and cardiacfibrosis	–
NC/C=C(\F)CS(=O)(=O)c1cccc2cccnc12 [PXS-5505]	–	–	–	–	–	–	significantly reduced renal fibrosis
COC(=O)c1cc(-c2cccc(S(=O)(=O)N3CCCC3)c2)c2nc(C)n(C/C(F)=C/CN)c2c1 [Example 70, methyl (Z)-1-(4-amino-2-fluorobut-2-en-1-yl)-2-methyl-4-(3-(pyrrolidin-1-ylsulfonyl)phenyl)-1H-benzo[d]imidazol-6-carboxylate hydrochloride]	10300 nM	60 nM	> 100000 nM	2500 nM	–	–	–

The next lines start with results.

IC50 [2]	IC50 [3]	IC50 [4]	IC50 [5]	Compound	fibrosis [1]	liver and cardiac fibrosis [6]	renal fibrosis [7]
24600 nM	19.4 nM	> 100000 nM	139 nM	COC(=O)c1cc(-c2cccc(S(=O)(=O)N(C)C)c2)c2ncn(C/C(F)=C/CN)c2c1 [Example 31, methyl (Z)-1-(4-amino-2-fluorobut-2-en-1-yl)-4-(3-(N,N-dimethysulfamoyl)phenyl)-1H-benzo[d]imidazol-6-carboxylate hydrochloride]	–	–	–
> 100000 nM	29.7 nM	> 100000 nM	3460 nM	CNS(=O)(=O)c1cccc(-c2cc(C(=O)OC)cc3c2ncn3C/C(F)=C/CN)c1 [Example 30, methyl (Z)-1-(4-amino-2-fluorobut-2-en-1-yl)-4-(3-(N-methylsulfamoyl)phenyl)-1H-benzo[d]imidazol-6-carboxylate hydrochloride]	–	–	–
> 100000 nM	104 nM	> 100000 nM	> 100000 nM	CS(=O)(=O)c1cccc(-c2cc(C(F)(F)F)cc3c2ncn3C/C(F)=C/CN)c1 [Example 13, (Z)-3-fluoro-4-(4-(3-(methylsulfonyl)phenyl)-6-(trifluoromethyl)-1H-benzo[d]imidazol-1-yl) but-2-en-1-amine hydrochloride]	–	–	–
48600 nM	39 nM	> 100000 nM	3100 nM	NC/C=C(\F)Cn1cnc2c(-c3cccc(S(=O)(=O)NC4CC4)c3)cc(F)cc21 [Example 9, (Z)-3-(1-(4-amino-2-fluorobut-2-en-1-yl)-6-fluoro-1H-benzo[d]imidazol-4-yl)-N-cyclopropylbenzenesulfonamide hydrochloride]	–	–	–
53300 nM	19.9 nM	> 100000 nM	5070 nM	COC(=O)c1cc(-c2cccc(S(=O)(=O)N3CCC(F)(F)C3)c2)c2ncn(C/C(F)=C/CN)c2c1 [Example 22, methyl (Z)-1-(4-amino-2-fluorobut-2-en-1-yl)-4-(3-((3,3-difluoropyrrolidine-1-yl)sulfonyl)phenyl)-1H-benzo[d]imidazol-6-carboxylate hydrochloride]	–	–	–
